Data as given in the NIST ThermoML archive (doi:10.1016/j.jct.2019.06.014).
Numbers after ± are expanded uncertainties.

Conditions: 101.33 kPa, Liquid, transient hot wire

## CCO [ethanol]
276.51 K
  thermal conductivity: 0.1719 ± 0.0072 W/m/K
287.55 K
  thermal conductivity: 0.1677 ± 0.0071 W/m/K
297.25 K
  thermal conductivity: 0.1645 ± 0.0069 W/m/K
307.16 K
  thermal conductivity: 0.1617 ± 0.0068 W/m/K

## CCOC(C)=O [ethyl acetate]
249.13 K
  thermal conductivity: 0.1618 ± 0.0065 W/m/K
253.89 K
  thermal conductivity: 0.1602 ± 0.0064 W/m/K
260.17 K
  thermal conductivity: 0.1574 ± 0.0063 W/m/K
268.04 K
  thermal conductivity: 0.154 ± 0.0062 W/m/K
274.35 K
  thermal conductivity: 0.152 ± 0.0061 W/m/K
281.34 K
  thermal conductivity: 0.1491 ± 0.006 W/m/K
285.31 K
  thermal conductivity: 0.1472 ± 0.0059 W/m/K
290.42 K
  thermal conductivity: 0.1451 ± 0.0058 W/m/K
295.44 K
  thermal conductivity: 0.1429 ± 0.0058 W/m/K
298.52 K
  thermal conductivity: 0.1414 ± 0.0057 W/m/K
303.53 K
  thermal conductivity: 0.1396 ± 0.0056 W/m/K
308.44 K
  thermal conductivity: 0.1378 ± 0.0055 W/m/K
313.45 K
  thermal conductivity: 0.1361 ± 0.0055 W/m/K
318.4 K
  thermal conductivity: 0.1346 ± 0.0054 W/m/K
323.25 K
  thermal conductivity: 0.1324 ± 0.0053 W/m/K
328.39 K
  thermal conductivity: 0.1308 ± 0.0053 W/m/K
333.37 K
  thermal conductivity: 0.1288 ± 0.0052 W/m/K
338.34 K
  thermal conductivity: 0.1273 ± 0.0051 W/m/K
343.27 K
  thermal conductivity: 0.1257 ± 0.0051 W/m/K
345.43 K
  thermal conductivity: 0.1245 ± 0.005 W/m/K
348.46 K
  thermal conductivity: 0.1239 ± 0.005 W/m/K

## CCCC(=O)OCC [ethyl butanoate]
268.57 K
  thermal conductivity: 0.1471 ± 0.0059 W/m/K
273.61 K
  thermal conductivity: 0.1446 ± 0.0058 W/m/K
278.63 K
  thermal conductivity: 0.1423 ± 0.0057 W/m/K
283.58 K
  thermal conductivity: 0.1408 ± 0.0057 W/m/K
288.65 K
  thermal conductivity: 0.1385 ± 0.0056 W/m/K
293.58 K
  thermal conductivity: 0.1374 ± 0.0055 W/m/K
298.53 K
  thermal conductivity: 0.1357 ± 0.0055 W/m/K
303.56 K
  thermal conductivity: 0.1339 ± 0.0054 W/m/K
308.67 K
  thermal conductivity: 0.132 ± 0.0053 W/m/K
313.49 K
  thermal conductivity: 0.1311 ± 0.0053 W/m/K
318.61 K
  thermal conductivity: 0.1293 ± 0.0052 W/m/K
323.42 K
  thermal conductivity: 0.1282 ± 0.0052 W/m/K
328.48 K
  thermal conductivity: 0.1264 ± 0.0051 W/m/K
333.46 K
  thermal conductivity: 0.1249 ± 0.005 W/m/K
338.5 K
  thermal conductivity: 0.1234 ± 0.005 W/m/K
343.51 K
  thermal conductivity: 0.1214 ± 0.0049 W/m/K
348.54 K
  thermal conductivity: 0.12 ± 0.0048 W/m/K
353.36 K
  thermal conductivity: 0.1192 ± 0.0048 W/m/K
358.57 K
  thermal conductivity: 0.1173 ± 0.0047 W/m/K
363.52 K
  thermal conductivity: 0.1163 ± 0.0047 W/m/K

## CCCCCC(=O)OCC [ethyl hexanoate]
254.29 K
  thermal conductivity: 0.1474 ± 0.0059 W/m/K
264.08 K
  thermal conductivity: 0.1447 ± 0.0058 W/m/K
274.02 K
  thermal conductivity: 0.1429 ± 0.0058 W/m/K
283.95 K
  thermal conductivity: 0.1398 ± 0.0056 W/m/K
293.74 K
  thermal conductivity: 0.1375 ± 0.0055 W/m/K
303.7 K
  thermal conductivity: 0.1353 ± 0.0054 W/m/K
313.76 K
  thermal conductivity: 0.1323 ± 0.0053 W/m/K
323.67 K
  thermal conductivity: 0.13 ± 0.0052 W/m/K
333.63 K
  thermal conductivity: 0.1268 ± 0.0051 W/m/K
343.56 K
  thermal conductivity: 0.1242 ± 0.005 W/m/K
353.55 K
  thermal conductivity: 0.1216 ± 0.0049 W/m/K
363.41 K
  thermal conductivity: 0.1191 ± 0.0048 W/m/K
373.4 K
  thermal conductivity: 0.1172 ± 0.0047 W/m/K
383.37 K
  thermal conductivity: 0.1153 ± 0.0046 W/m/K

## CCCCC(=O)OCC [ethyl pentanoate]
249.21 K
  thermal conductivity: 0.1501 ± 0.006 W/m/K
263.9 K
  thermal conductivity: 0.1458 ± 0.0059 W/m/K
273.5 K
  thermal conductivity: 0.1433 ± 0.0058 W/m/K
283.8 K
  thermal conductivity: 0.1396 ± 0.0056 W/m/K
288.74 K
  thermal conductivity: 0.1389 ± 0.0056 W/m/K
289.42 K
  thermal conductivity: 0.1377 ± 0.0055 W/m/K
293.69 K
  thermal conductivity: 0.1369 ± 0.0055 W/m/K
298.79 K
  thermal conductivity: 0.1357 ± 0.0055 W/m/K
303.69 K
  thermal conductivity: 0.1344 ± 0.0054 W/m/K
308.61 K
  thermal conductivity: 0.1328 ± 0.0053 W/m/K
313.74 K
  thermal conductivity: 0.1314 ± 0.0053 W/m/K
318.49 K
  thermal conductivity: 0.1301 ± 0.0052 W/m/K
323.74 K
  thermal conductivity: 0.1282 ± 0.0052 W/m/K
328.62 K
  thermal conductivity: 0.1268 ± 0.0051 W/m/K
333.51 K
  thermal conductivity: 0.1256 ± 0.0051 W/m/K
338.47 K
  thermal conductivity: 0.1241 ± 0.005 W/m/K
343.55 K
  thermal conductivity: 0.1228 ± 0.0049 W/m/K
348.55 K
  thermal conductivity: 0.1216 ± 0.0049 W/m/K
353.49 K
  thermal conductivity: 0.1201 ± 0.0048 W/m/K
358.46 K
  thermal conductivity: 0.1184 ± 0.0048 W/m/K
363.57 K
  thermal conductivity: 0.1177 ± 0.0047 W/m/K

## CCOC(=O)CC [ethyl propanoate]
263.55 K
  thermal conductivity: 0.1547 ± 0.0062 W/m/K
268.41 K
  thermal conductivity: 0.1531 ± 0.0062 W/m/K
270.94 K
  thermal conductivity: 0.152 ± 0.0061 W/m/K
278.51 K
  thermal conductivity: 0.1474 ± 0.0059 W/m/K
283.51 K
  thermal conductivity: 0.1447 ± 0.0058 W/m/K
288.56 K
  thermal conductivity: 0.143 ± 0.0058 W/m/K
293.54 K
  thermal conductivity: 0.1408 ± 0.0057 W/m/K
296.36 K
  thermal conductivity: 0.1404 ± 0.0057 W/m/K
301.4 K
  thermal conductivity: 0.1384 ± 0.0056 W/m/K
306.51 K
  thermal conductivity: 0.1365 ± 0.0055 W/m/K
311.34 K
  thermal conductivity: 0.1348 ± 0.0054 W/m/K
316.45 K
  thermal conductivity: 0.1332 ± 0.0054 W/m/K
321.47 K
  thermal conductivity: 0.1314 ± 0.0053 W/m/K
326.44 K
  thermal conductivity: 0.13 ± 0.0052 W/m/K
331.53 K
  thermal conductivity: 0.128 ± 0.0052 W/m/K
336.4 K
  thermal conductivity: 0.1264 ± 0.0051 W/m/K
341.36 K
  thermal conductivity: 0.125 ± 0.005 W/m/K
346.42 K
  thermal conductivity: 0.1231 ± 0.005 W/m/K
351.35 K
  thermal conductivity: 0.1219 ± 0.0049 W/m/K
356.28 K
  thermal conductivity: 0.1208 ± 0.0049 W/m/K

## O [water]
299.55 K
  thermal conductivity: 0.613 ± 0.026 W/m/K
309.83 K
  thermal conductivity: 0.6313 ± 0.026 W/m/K
319.56 K
  thermal conductivity: 0.6399 ± 0.027 W/m/K
332.53 K
  thermal conductivity: 0.6555 ± 0.028 W/m/K
339.33 K
  thermal conductivity: 0.657 ± 0.028 W/m/K
349.41 K
  thermal conductivity: 0.6723 ± 0.028 W/m/K
